Some test systems named below: PC-3 prostate; RXF 393 renal; SNB-19 CNS; UACC-62 melanoma; M14 melanoma; EKVX NSCLC; U251 CNS; A549 NSCLC; SF-295 CNS.
Common to all, as to assay: DTP human tumour cell line panel, 48 h

SMILES strings stand for the structures.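 Interpolation was linear, between the two tested concentrations surrounding the appropriate level; five concentrations were tested over 48 hours in 96-well plates. The concentration for full growth arrest is given as TGI.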

Results on 15 compounds are retold here after PubChem BioAssay (NCI).

As a reminder, the TGI is the concentration giving total growth inhibition.

Regarding `COc1ccc(-c2cc(C3CC3)nc(SCC(=O)O)c2C#N)cc1`, the concentration for total growth inhibition (TGI) in the assay on PC-3 prostate, in the assay with RXF 393 renal, in the assay with SNB-19 CNS, in the assay with UACC-62 melanoma, in the assay on M14 melanoma and in the assay on EKVX NSCLC was above 100 µM throughout. In addition, the total growth inhibition concentration (TGI) with U251 CNS, in the assay on A549 NSCLC and in the assay on SF-295 CNS was above 100 µM each time.
On to `OC12C3C4CC5C(C4[C@@H]1Br)C2[C@@](O)(c1c(F)c(F)c(F)c(F)c1F)C53` (some centres undefined), for which the TGI in the assay on PC-3 prostate is 94.4 µM; in the assay on RXF 393 renal, 94.3 µM; with SNB-19 CNS, above 100 µM; with UACC-62 melanoma, above 100 µM; in the assay on M14 melanoma it was above 100 µM; in the assay with EKVX NSCLC, 98.9 µM. Further, the values for the TGI in the assay on U251 CNS, in the assay with A549 NSCLC and in the assay on SF-295 CNS were above 100 µM, above 100 µM and 76.8 µM, respectively.
With `CSc1nc2c(c(=O)n1C)N=C(c1ccc(Cl)cc1)CC(c1ccccc1)N2` (centres undefined), the TGI in the assay on PC-3 prostate was above 100 µM; in the assay with RXF 393 renal, 75.4 µM; in the assay with SNB-19 CNS, above 100 µM; in the assay on UACC-62 melanoma it was 34.7 µM; with M14 melanoma, 34.7 µM; in the assay with EKVX NSCLC it was 65.1 µM. The TGI in the assay with U251 CNS is above 100 µM; in the assay with A549 NSCLC, 73.7 µM; with SF-295 CNS, 53.1 µM.
As to `O=c1[nH]nc(Cc2ccccc2)n1/N=C/c1ccc([N+](=O)[O-])o1`, the TGI stood at 20.9 µM in the assay on PC-3 prostate; 7.94 µM with RXF 393 renal; 38.1 µM in the assay with SNB-19 CNS; 4.56 µM in the assay on UACC-62 melanoma; 7.1 µM in the assay with M14 melanoma; 16.7 µM in the assay on EKVX NSCLC. Besides, the TGI with U251 CNS was 16.3 µM; in the assay with A549 NSCLC, above 100 µM; in the assay on SF-295 CNS, 36.2 µM.
With `COc1ccc(OC)c(C(=O)/C=C/c2cc(O)c(O)cc2F)c1`, the concentration for total growth inhibition (TGI) is 17.1 µM in the assay on PC-3 prostate; 23.5 µM in the assay with RXF 393 renal; above 35 µM with SNB-19 CNS; 11.7 µM in the assay with UACC-62 melanoma; 19.7 µM in the assay with M14 melanoma; above 77.4 µM in the assay with EKVX NSCLC. Further, the TGI was 12.3 µM with U251 CNS, above 82.7 µM in the assay on A549 NSCLC and 9.25 µM in the assay with SF-295 CNS.
For the compound `Cc1c(C)c2c(c(N)c1C#N)C(=O)N(OS(=O)(=O)c1ccccc1)C2=O`, the TGI with PC-3 prostate is above 100 µM; with RXF 393 renal, 30.7 µM; with SNB-19 CNS, above 100 µM; with UACC-62 melanoma, 61.4 µM; in the assay on M14 melanoma, 41.6 µM; in the assay with EKVX NSCLC it was 37.4 µM. In addition, the values for the TGI in the assay on U251 CNS, in the assay on A549 NSCLC and in the assay with SF-295 CNS were 49.5 µM, 32.1 µM and above 100 µM, respectively.
In the case of `O=C1c2n[nH]nc2C(=O)c2n[nH]nc21`, the TGI in the assay with PC-3 prostate, with RXF 393 renal, in the assay with SNB-19 CNS, with UACC-62 melanoma, in the assay on M14 melanoma and in the assay with EKVX NSCLC was above 100 µM in each case. Moreover, the TGI in the assay with U251 CNS, with A549 NSCLC and in the assay with SF-295 CNS was above 100 µM in each case.
Regarding `N#Cc1nc(C(F)(F)F)oc1N`, the TGI in the assay with PC-3 prostate, in the assay with RXF 393 renal, in the assay on SNB-19 CNS, with UACC-62 melanoma, with M14 melanoma and in the assay with EKVX NSCLC was above 100 µM throughout. Also, the TGI in the assay with U251 CNS, in the assay with A549 NSCLC and with SF-295 CNS was above 100 µM throughout.
Regarding `CN1[C@@H]2CCCC[C@H]2N(C)P1(=O)C(O)/C=C/c1ccccc1` (some centres undefined), the TGI with PC-3 prostate, with RXF 393 renal, with SNB-19 CNS, with UACC-62 melanoma, in the assay on M14 melanoma and in the assay with EKVX NSCLC was above 100 µM throughout. Moreover, the TGI in the assay on U251 CNS, with A549 NSCLC and with SF-295 CNS was above 100 µM each time.
In the case of `CCOC(=O)CN=C1Nc2ccccc2C(=O)N2CSCC12` (centres undefined), the TGI in the assay on PC-3 prostate, with RXF 393 renal, in the assay on SNB-19 CNS, with UACC-62 melanoma, in the assay with M14 melanoma and with EKVX NSCLC was above 100 µM each time. The TGI in the assay with U251 CNS, with A549 NSCLC and in the assay on SF-295 CNS was above 100 µM each time.
Turning to `CC1=NC2(CCCCC2)N(Cl)C(=O)C1SC#N` (centres undefined), the TGI with PC-3 prostate is 32.1 µM; in the assay with RXF 393 renal it was 32.3 µM; with SNB-19 CNS, 49.9 µM; in the assay on UACC-62 melanoma, 27.2 µM; in the assay on M14 melanoma, 34.4 µM; with EKVX NSCLC, 31.9 µM. The TGI in the assay with U251 CNS came to 37.4 µM; in the assay on A549 NSCLC, 24.8 µM; with SF-295 CNS, 36.1 µM.
For `CC1(C)CC(=O)C2=C(C1)NC(SCC(=O)O)=C(C#N)C2c1ccc(Br)cc1` (centres undefined), the TGI in the assay with PC-3 prostate, in the assay with RXF 393 renal, in the assay on SNB-19 CNS, in the assay on UACC-62 melanoma, with M14 melanoma and in the assay on EKVX NSCLC was above 100 µM in each case. Besides, the TGI in the assay with U251 CNS, in the assay on A549 NSCLC and with SF-295 CNS was above 100 µM in each case.
As to `O=S(=O)(O)c1ccc2c(N=Nc3ccccc3)c(O)c(S(=O)(=O)O)cc2c1`, the TGI in the assay on PC-3 prostate, in the assay on RXF 393 renal, in the assay with SNB-19 CNS, with UACC-62 melanoma, with M14 melanoma and in the assay with EKVX NSCLC was above 100 µM throughout. Moreover, the TGI in the assay with U251 CNS, with A549 NSCLC and in the assay with SF-295 CNS was above 100 µM in each case.
Take `[N-]=[N+]=NC1=NNC2(C(=O)N1)c1ccccc1-c1ccccc12`: the TGI with PC-3 prostate, with RXF 393 renal, in the assay with SNB-19 CNS, with UACC-62 melanoma, in the assay on M14 melanoma and in the assay on EKVX NSCLC was above 100 µM in each case. Also, the TGI in the assay on U251 CNS, in the assay on A549 NSCLC and in the assay with SF-295 CNS was above 100 µM each time.
As to `COC(=O)c1c(O)ccc2c1c1c(n2Cc2ccc(OC)cc2)C(=O)c2ccccc2C1=O`, the TGI was 21.1 µM with PC-3 prostate; 34.3 µM in the assay with RXF 393 renal; above 100 µM in the assay with SNB-19 CNS; 32.4 µM in the assay on M14 melanoma; above 100 µM in the assay on EKVX NSCLC; 23.4 µM in the assay on U251 CNS. For the same compound, the TGI turned out to be 21.6 µM with A549 NSCLC and 39 µM with SF-295 CNS.
